Among the data in patent US7659401B2, “Thiazolo[4,5-C]pyridine derivatives” (Hoffmann-La Roche Inc., priority 2005, dated 2010) are Ki values, retold here.

In the experiment the target is T1, human mGlu 5a receptor (Homo sapiens, UniProt P41594).
T1 construct: expressed in transfected cells; host or cells: EBNA cells (transient transfection); cell membrane homogenates
T1 sequence (P41594 21-1180 isoform P41594-2 limits assumed): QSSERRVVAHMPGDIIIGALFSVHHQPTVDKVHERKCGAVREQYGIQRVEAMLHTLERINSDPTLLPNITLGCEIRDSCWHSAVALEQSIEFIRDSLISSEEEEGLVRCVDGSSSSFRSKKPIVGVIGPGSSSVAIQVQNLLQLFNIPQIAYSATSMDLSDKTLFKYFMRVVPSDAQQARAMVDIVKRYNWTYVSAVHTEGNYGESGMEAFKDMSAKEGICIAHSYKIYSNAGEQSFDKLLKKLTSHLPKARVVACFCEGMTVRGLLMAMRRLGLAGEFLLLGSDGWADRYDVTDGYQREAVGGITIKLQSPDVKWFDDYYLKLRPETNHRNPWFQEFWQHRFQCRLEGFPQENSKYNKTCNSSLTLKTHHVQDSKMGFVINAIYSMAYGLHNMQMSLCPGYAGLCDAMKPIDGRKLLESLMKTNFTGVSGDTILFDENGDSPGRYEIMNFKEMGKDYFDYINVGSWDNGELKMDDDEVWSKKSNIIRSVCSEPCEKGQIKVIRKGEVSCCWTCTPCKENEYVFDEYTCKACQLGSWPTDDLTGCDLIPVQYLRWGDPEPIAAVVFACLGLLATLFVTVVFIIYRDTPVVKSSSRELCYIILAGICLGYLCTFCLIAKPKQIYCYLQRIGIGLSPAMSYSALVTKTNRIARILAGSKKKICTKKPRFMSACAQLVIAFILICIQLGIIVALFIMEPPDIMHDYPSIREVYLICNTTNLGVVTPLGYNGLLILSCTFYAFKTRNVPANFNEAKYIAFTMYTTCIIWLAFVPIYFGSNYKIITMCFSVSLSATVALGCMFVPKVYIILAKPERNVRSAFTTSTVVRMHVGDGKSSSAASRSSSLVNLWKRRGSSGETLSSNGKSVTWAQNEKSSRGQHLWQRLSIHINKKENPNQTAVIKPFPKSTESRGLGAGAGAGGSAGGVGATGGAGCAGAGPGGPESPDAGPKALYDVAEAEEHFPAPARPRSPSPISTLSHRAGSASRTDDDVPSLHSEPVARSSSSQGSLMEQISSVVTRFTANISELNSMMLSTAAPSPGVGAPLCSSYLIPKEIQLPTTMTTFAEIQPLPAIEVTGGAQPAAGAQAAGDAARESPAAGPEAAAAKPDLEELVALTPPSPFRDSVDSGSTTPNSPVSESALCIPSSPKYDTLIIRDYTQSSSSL
The experiment can be described thus: [3H]MPEP competition binding on membranes of EBNA cells transiently transfected with human mGlu 5a receptor. The conditions noted are these: displacement of [3H]MPEP (2 nM), 1 h at 4° C., Ki=IC50/[1+L/Kd]. As for the experimental part:
The pharmacological activity of the compounds was tested using the following method: For binding experiments, cDNA encoding human mGlu 5a receptor was transiently transfected into EBNA cells using a procedure described by Schlaeger and Christensen [Cytotechnology 15:1-13 (1998)]. Cell membrane homogenates were stored at −80° C. until the day of assay where upon they were thawed and resuspended and polytronised in 15 mM Tris-HCl, 120 mM NaCl, 100 mM KCl, 25 mM CaCl2, 25 mM MgCl2 binding buffer at pH 7.4 to a final assay concentration of 20 μg protein/well.
Saturation isotherms were determined by addition of twelve [^3H]MPEP concentrations (0.04-100 nM) to these membranes (in a total volume of 200 μL) for 1 h at 4° C. Competition experiments were performed with a fixed concentration of [^3H]MPEP (2 nM) and IC50 values of test compounds evaluated using 11 concentrations (0.3-10,000 nM). Incubations were performed for 1 h at 4° C.
At the end of the incubation, membranes were filtered onto unifilter (96-well white microplate with bonded GF/C filter preincubated 1 h in 0.1% PEI in wash buffer, Packard Bio-Science, Meriden, Conn.) with a Filtermate 96 harvester (Packard BioScience) and washed 3 times with cold 50 mM Tris-HCl, pH 7.4 buffer. Nonspecific binding was measured in the presence of 10 μM MPEP. The radioactivity on the filter was counted (3 min) on a Packard Top-count microplate scintillation counter with quenching correction after addition of 45 μl of microscint 40 (Canberra Packard S.A., Zürich, Switzerland) and shaking for 20 min.
For binding experiments the Ki values of the compounds tested are given. The Ki value is defined by the following formula: Ki=IC50/[1+L/Kd] in which the IC50 values are those concentrations of the compounds tested which cause 50% inhibition of the competing radioligand ([^3H]MPEP). L is the concentration of radioligand used in the binding experiment and the Kd value of the radioligand is empirically determined for each batch of membranes prepared.
As for `Cc1nc2c(Nc3cccc(Cl)c3)nccc2s1` [Example 1], the inhibitory constant (Ki) stood at 26 nM.
As for `Cc1nc(Nc2ncc(-c3cccnc3)c3sc(C)nc23)cs1` [Example 2, (2-Methyl-7-pyridin-3-yl-thiazolo[4,5-c]pyridin-4-yl)-(2-methyl-thiazol-4-yl)-amine], the figure is 37 nM; as for `Cc1csc(Nc2ncc(-c3cccnc3)c3sc(C)nc23)n1` [Example 3, (2-Methyl-7-pyridin-3-yl-thiazolo[4,5-c]pyridin-4-yl)-(4-methyl-thiazol-2-yl)-amine], 42 nM.
Regarding `Cc1nc2c(Nc3ccc(F)cn3)ncc(-c3cccnc3)c2s1` [Example 4], the Ki was 40 nM.
The same measure for `Cc1nc2c(Nc3ccn(C)n3)ncc(-c3cccnc3)c2s1` [Example 5]: 167 nM; for `Cc1csc(Nc2ncc(-c3cncnc3)c3sc(C)nc23)n1` [Example 9]: 61 nM; for `Cc1nc(Nc2ncc(-c3ccnc(Cl)c3)c3sc(C)nc23)cs1` [Example 14, [7-(2-Chloro-pyridin-4-yl)-2-methyl-thiazolo[4,5-c]pyridin-4-yl]-(2-methyl-thiazol-4-yl)-amine]: 45 nM.
For `Cc1nccc(Nc2ncc(-c3cccc(S(C)(=O)=O)c3)c3sc(C)nc23)n1` [Example 17, [7-(3-Methanesulfonyl-phenyl)-2-methyl-thiazolo[4,5-c]pyridin-4-yl]-(2-methyl-pyrimidin-4-yl)-amine], the inhibition constant Ki stood at 128 nM.
Regarding `Cc1csc(Nc2ncc(-c3cc(F)cc(F)c3)c3sc(C)nc23)n1` [Example 19, [7-(3,5-Difluoro-phenyl)-2-methyl-thiazolo[4,5-c]pyridin-4-yl]-(4-methyl-thiazol-2-yl)-amine], the inhibitory constant (Ki) amounted to 29 nM.
As for `Cc1ccc(Nc2ncc(-c3cncc(F)c3)c3sc(C)nc23)nc1` [Example 20, [7-(5-Fluoro-pyridin-3-yl)-2-methyl-thiazolo[4,5-c]pyridin-4-yl]-(5-methyl-pyridin-2-yl)-amine], the figure is 87 nM.
